Positions count from the first letter of the chain named. pEC50, pIC50: −log10 of the molar value.
Assays:
[1] = Determination of metabolic stability in vitro (calculation of hepatic in vivo blood clearance); assay type: in vitro ADME; conditions: pH 7.4, human liver microsomes, calculated from half-life, read-out: calculated hepatic in vivo blood clearance (CL) (converted)
Description: Determination of Metabolic Stability In Vitro (Including Calculation of Hepatic In Vivo Blood Clearance (CL) and of Maximal Oral Bioavailability (Fmax))
The metabolic stability of test compounds in vitro was determined by incubating them at 1 μM with a suspension of human liver microsomes in 100 mM phosphate buffer, pH7.4 (NaH2PO4×H2O+Na2HPO4×2H2O) at a protein concentration of 0.5 mg/ml and at 37° C. The reaction was activated by adding a co-factor mix containing 1.2 mg NADP, 3 IU glucose-6-phosphate dehydrogenase, 14.6 mg glucose-6-phosphate and 4.9 mg MgCl2 in phosphate buffer, pH 7.4. Organic solvent in the incubations was limited to <0.2% dimethylsulfoxide (DMSO) and <1% methanol. During incubation, the microsomal suspensions were continuously shaken and aliquots were taken at 2, 8, 16, 30, 45 and 60 min, to which equal volumes of cold methanol were immediately added. Samples were freezed at −20° C. over night, subsequently centrifuged for 15 minutes at 3000 rpm and the supernatant was analyzed with an Agilent 1200 HPLC-system with LCMS/MS detection.
The half-life of a test compound was determined from the concentration-time plot. From the half-life the intrinsic clearances were calculated. Together with the additional parameters liver blood flow, specific liver weight and microsomal protein content the hepatic in vivo blood clearance (CL) and the maximal oral bioavailability (Fmax) were calculated for the different species. The following parameter values were used: Liver blood flow—1.3 l/h/kg human; specific liver weight—21 g/kg human; microsomal protein content—40 mg/g.
With the described assay only phase-I metabolism of microsomes is reflected, e.g. typically oxidoreductive reactions by cytochrome P450 enzymes and flavin mono-oxygenases (FMO) and hydrolytic reactions by esterases (esters and amides).

[2] = biological target: T1, wild-type human androgen receptor (Homo sapiens, UniProt P10275); experiment: Cell-based transactivation assay for wild-type human androgen receptor (PC-3 cells, MMTV-luciferase reporter)
T1 construct: expressed in transfected cells
T1 sequence (P10275 1-920): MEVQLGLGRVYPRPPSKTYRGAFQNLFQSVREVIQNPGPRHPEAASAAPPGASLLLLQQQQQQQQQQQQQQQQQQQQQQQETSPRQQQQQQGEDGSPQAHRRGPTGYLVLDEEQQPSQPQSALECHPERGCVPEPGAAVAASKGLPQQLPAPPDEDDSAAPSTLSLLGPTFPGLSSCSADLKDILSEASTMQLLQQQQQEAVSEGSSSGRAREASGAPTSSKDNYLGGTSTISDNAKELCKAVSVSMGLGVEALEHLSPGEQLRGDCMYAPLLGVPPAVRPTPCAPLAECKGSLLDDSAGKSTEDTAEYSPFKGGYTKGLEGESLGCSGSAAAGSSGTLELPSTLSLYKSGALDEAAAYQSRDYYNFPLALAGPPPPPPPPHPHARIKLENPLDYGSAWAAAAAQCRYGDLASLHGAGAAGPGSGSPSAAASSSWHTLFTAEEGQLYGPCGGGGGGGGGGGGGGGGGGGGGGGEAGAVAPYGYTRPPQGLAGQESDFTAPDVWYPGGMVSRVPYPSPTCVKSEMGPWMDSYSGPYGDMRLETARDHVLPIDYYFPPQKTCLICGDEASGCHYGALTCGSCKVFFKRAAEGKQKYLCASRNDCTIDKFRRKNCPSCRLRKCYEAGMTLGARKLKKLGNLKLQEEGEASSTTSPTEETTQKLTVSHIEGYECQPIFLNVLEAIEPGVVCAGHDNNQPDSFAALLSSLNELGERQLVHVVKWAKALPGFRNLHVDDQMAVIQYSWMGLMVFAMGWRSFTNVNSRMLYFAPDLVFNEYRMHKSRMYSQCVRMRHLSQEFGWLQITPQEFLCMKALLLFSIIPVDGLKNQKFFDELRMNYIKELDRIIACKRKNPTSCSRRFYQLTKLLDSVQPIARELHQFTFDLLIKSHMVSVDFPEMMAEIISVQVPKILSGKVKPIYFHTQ
Description: Cell-Based Transactivation Assay for Wild-Type Human Androgen Receptor
PC-3 cells (Kaighn et al., Invest. Urol. 17:16-23, 1979) stably transfected with the human androgen receptor (Swiss-Prot Acc. No. P10275, Entry Version 159, Sequence Version 2) and a reporter plasmid based on pGL4.14 (#E6691, Promega Corporation, Madison, Wis., USA) containing the MMTV promoter (Cato et al., EMBO J. 6:363-8, 1987) were used. They were grown in 5% charcoal-stripped medium and seeded at a concentration of 1000 cells per well in a 384-well plate. For determination of antagonistic activity, the plate additionally contained the compound to be tested at a concentration range varying from 5.12×10^−12 to 1×10^−5 M. The assay was performed in presence of 1×10^−10 R1881 (also known as methyltrienolone). After overnight incubation at 37° C. in a 5% CO2 atmosphere, 15 μl of Steady Glo Lysis and Detection reagent (Steady Glo Luciferase assay system E2550 from Promega Corporation. Madison, Wis., USA) were added. IC50 was calculated for anti-androgenic activity as well as percentage inhibition in presence of 2 μM compound in comparison to non-stimulated luciferase signal. Agonistic activity was determined using the same concentration range of compound in the absence of R1881 by measuring Luciferase activity as above. EC50 was calculated for androgenic activity. Assay/read plates were used (Polystyrol; 384, NV-white cell culture plates; Perkin Elmer).

[3] = biological target: T2, human androgen receptor W741L mutant (Homo sapiens, UniProt P10275, W742L); experiment: Cell-based transactivation assay for human androgen receptor mutant W741L
T2 construct: expressed in transfected cells; host or cells: PC-3 cells, transient transfection with a pSG5-derived plasmid
T2 sequence (P10275 1-920 W742L): T1 sequence (P10275 1-920) with W742L

LNCaP cells = experiment: Proliferation assay with LNCaP cells; assay type: cell-based; conditions: Homo sapiens, 168 h, R1881 (1×10^−10) stimulated growth, day 7, read-out: inhibition IC50 (LNCaP)
Description: Proliferation Assay with LNCaP Cells
LNCaP cells (Horoszewicz et al., in “Models for Prostate Cancer” (ed. G. P. Murphy), Alan R. Liss, New York 1981, p. 115-132; Horoszewicz et al., Cancer Res. 43:1809-1818, 1983) were seeded at 2000 cells/well in 96-well plates in RPMI (F1235, Biochrom AG, Berlin, Germany) without phenol red supplemented with 5% charcoal-stripped serum. After 3 days, the cells were treated with R1881) (1×10^−10) and compound (day 0). Cell number was determined by Alamar Blue (DAL1100, Invitrogen, Life Technologies, Lohne, Germany) staining (2.5 h) at day 0 and day 7. Fluorescence was determined in Victor3 (Excitation 530 nm; emission 590 nm). Stimulated growth was defined as the signal measured at day 7 for cells treated only with R1881. Basal level was defined as the signal measured at day 7 for cells grown without R1881.

[4] = biological target: T3, human androgen receptor W741C mutant (Homo sapiens, UniProt P10275, W742C); experiment: Cell-based transactivation assay for human androgen receptor mutant W741C
T3 construct: expressed in transfected cells; host or cells: PC-3 cells, transient transfection with a pSG5-derived plasmid
T3 sequence (P10275 1-920 W742C): T1 sequence (P10275 1-920) with W742C
Description: Cell-Based Transactivation Assay for Human Androgen Receptor Mutant W741L or W741C
PC-3 cells (Kaighn et al., Invest. Urol. 17:16-23, 1979) were grown in 5% charcoal-stripped medium and seeded at a concentration of 10000 cells per well in a 96-well plate. They were transiently transfected with a pSG5-derived plasmid (#216201 from Stratagene, La Jolla, Calif., USA) coding for the human androgen receptor W741L or W741C mutant Mara et al., Cancer Research, 63: 149-153, 2003) and an MMTV-Luciferase reporter plasmid based on pGL4.14 14 (#E6691, Promega Corporation, Madison, Wis., USA). The compound to be tested was added at a concentration range varying from 1×10^−9 to 1×10 M together with 1×10^−10 R1881. After 24 h incubation at 37° C. in a 5% CO2 atmosphere, 100 μl of Steady Glo Lysis and Detection reagent (Steady Glo Luciferase assay system E2550 from Promega Corporation. Madison, Wis., USA) were added. Antagonistic activity was determined by measuring Luciferase activity in a Victor 3 Luminometer (PerkinElmer, Waltham, Mass., USA) using the Steady Glo Luciferase Assay (E2550, Promega). IC50 values were calculated for anti-androgenic activity.

VCaP cells = experiment: Proliferation assay with VCaP cells; assay type: cell-based; conditions: Homo sapiens, 168 h, R1881 (1×10^−10) stimulated growth, day 7, read-out: Antiproliferative activity VCaP IC50
Description: Proliferation Assay with VCaP Cells
VCaP cells ((Korenchuk et al., In Vivo 15: 163-168, 2001)) were seeded at 16 000 cells/well in 96-well plates in DMEM (F0445, Biochrom AG, Berlin, Germany) with phenol red supplemented with 10% charcoal-stripped serum. After 1 day, the cells were treated with R1881 (1×10^−10) and compound (day 0). Cell number was determined by Alamar Blue (DAL1100, Invitrogen, Life Technologies, Lohne, Germany) staining (2.5 h) at day 0 and day 7. Fluorescence was determined in Victor3 (Excitation 530 nm; emission 590 nm). Stimulated growth was defined as the signal measured at day 7 for cells treated only with R1881. Basal level was defined as the signal measured at day 7 for cells grown without R1881.

Structure (SMILES) | CLhep predicted at 1 µM [1] | pEC50 [2] | pIC50 [3] | pIC50 (LNCaP cells) | pIC50 [4] | pIC50 (VCaP cells)
CC1(C)C(=O)N(c2ccc(C#N)c(C(F)(F)F)c2)C(=S)N1Cc1cnc(-n2ccnc2)nc1 [Example 17, 4-(3-{[2-(1H-Imidazol-1-yl)pyrimidin-5-yl]methyl}-4,4-dimethyl-5-oxo-2-thioxoimidazolidin-1-yl)-2-(trifluoromethyl)benzonitrile] | 1.5 mL/min/kg | < 5.00 | 7.69 |  |  | 
Cn1cc(-c2ccc(CN3C(=S)N(c4ccc(C#N)c(C(F)(F)F)c4)C(=O)C3(C)C)cn2)cn1 [Example 18, 4-(4,4-Dimethyl-3-{[6-(1-methyl-1H-pyrazol-4-yl)pyridin-3-yl]methyl}-5-oxo-2-thioxoimidazolidin-1-yl)-2-(trifluoromethyl)benzonitrile] | 1.83 mL/min/kg | 5.02 | 7.02 | 6.93 |  | 
Cc1cn(-c2ccc(CN3C(=S)N(c4ccc(C#N)c(C(F)(F)F)c4)C(=O)C3(C)C)cn2)cn1 [Example 19, 4-(4,4-Dimethyl-3-{[6-(4-methyl-1H-imidazol-1-yl)pyridin-3-yl]methyl}-5-oxo-2-thioxoimidazolidin-1-yl)-2-(trifluoromethyl)benzonitrile] |  | < 5.00 | 6.70 | 7.02 | 7.28 | 
Cn1nccc1-c1ccc(CN2C(=S)N(c3ccc(C#N)c(C(F)(F)F)c3)C(=O)C2(C)C)cn1 [Example 20, 4-(4,4-Dimethyl-3-{[6-(1-methyl-1H-pyrazol-5-yl)pyridin-3-yl]methyl}-5-oxo-2-thioxoimidazolidin-1-yl)-2-(trifluoromethyl)benzonitrile] |  | < 5.00 | 6.63 | 7.34 | 7.00 | 
Cc1nc(Cl)cn1-c1ccc(CN2C(=S)N(c3ccc(C#N)c(C(F)(F)F)c3)C(=O)C2(C)C)cn1 [Example 21, 4-(3-{[6-(4-Chloro-2-methyl-1H-imidazol-1-yl)pyridin-3-yl]methyl}-4,4-dimethyl-5-oxo-2-thioxoimidazolidin-1-yl)-2-(trifluoromethyl)benzonitrile] | 6.67 mL/min/kg | < 5.00 | 6.53 |  |  | 
CC1(C)C(=O)N(c2ccc(C#N)c(C(F)(F)F)c2)C(=S)N1Cc1ccc(-n2cnc(C(F)(F)F)c2)nc1 [Example 23, 4-[4,4-Dimethyl-5-oxo-2-thioxo-3-({6-[4-(trifluoromethyl)-1H-imidazol-1-yl]pyridin-3-yl}methyl)imidazolidin-1-yl]-2-(trifluoromethyl)benzonitrile] |  | < 5.00 | 7.08 | 6.80 | 6.83 | 6.47
CC1(C)C(=O)N(c2ccc(C#N)c(C(F)(F)F)c2)C(=S)N1Cc1ccc(-c2cccs2)nc1 [Example 24, 4-(4,4-Dimethyl-5-oxo-3-{[6-(thien-2-yl)pyridin-3-yl]methyl}-2-thioxoimidazolidin-1-yl)-2-(trifluoromethyl)benzonitrile] | 6.67 mL/min/kg | < 5.00 | 6.69 |  |  | 

From patent publication US20120251551A1, “Substituted (Heteroarylmethyl)thiohydantoins” (BAYER PHARMA AKTIENGESELLSCHAFT, priority 2009, published 2012)
